“And” between values parts separate entries of the source, which are not always exact repeats. Identical values can stand only once. Like-named read-outs stand apart in the source and are kept apart here.
What was measured:
AMPA receptors = conditions: rat forebrain membranes; earlier radioligand binding studies; cited from earlier work
AMPA receptor [1] = conditions: cited from earlier work
AMPA receptor [2] = experiment: Whole-cell voltage-clamp recording of AMPA-evoked currents in cultured hippocampal neurons; assay type: cell-based, rat
Protocol: (§1) Primary hippocampal neuronal cultures were prepared as previously described. In brief, timed pregnant rats Sprague-Dawley rats (Charles River Laboratories International, Wilmington, MA, USA) were anesthetized with isoflurane. E18 embryos were obtained and the hippocampi were dissected and treated in Hank’s balanced salt solution (HBSS; Invitrogen, Carlsbad, CA, USA) with trypsin (0.03%, Sigma-Aldrich, St. Louis, MO) for 20 min at 37°C. After inactivation of trypsin with neuronal medium (Neurobasal medium; Invitrogen, Life Technologies, Grand Island, NY, USA) supplemented with NS21, 0.5 mM glutamine, 10 mM HEPES) plus 5% horse serum (HS; Invitrogen), the tissue was washed twice with HBSS, and triturated with a fire-polished Pasteur pipette. After non-dissociated pieces of tissue settled, cells in the supernatant were collected by centrifugation (1100 rpm at 200×g for 3.5 min), re-suspended in neuronal medium plus 5% horse serum, counted, and plated on coverslips (Warner Instruments, Hamden, CT, USA) coated with 0.1% (w/v) poly-L-lysine (Peptides International, Louisville, KY, USA). The cell density was 3×10^4 cm^−2 in plating medium. After 4 h, the medium was replaced with serum-free neuronal medium. Cells were grown in a humidified environment of 95% air/5% CO2 at 37°C. One third of medium was changed after 5 days in vitro (DIV) and weekly thereafter.
(§2) Whole-cell voltage clamp experiments were performed 7–25 days after plating. […]. The pipette solution contained 145 CsCl, 0.1 mM CaCl2, 2 mM MgCl2, 1 mM EGTA, and 5 mM HEPES. For NMDA-mediated currents, recordings were made in a bath solution containing 135 mM NaCl, 5 mM KCl, 0.2 mM CaCl2, 10 mM HEPES, 1 µM TTX, 10 µM bicuculline, 1 µM strychnine, 10 µM NBQX, 3 µM glycine. The pipette solution contained 145 CsCl, 0.1 mM CaCl2, 1 mM EGTA, and 5 mM HEPES.
(§3) Recordings were made with an Axopatch 200B patch-clamp amplifier (Axon Instruments, Foster City, CA, USA). Whole-cell currents were filtered at 2 kHz and digitized at 10 kHz. All neurons were voltage-clamped at −60 mV. The following drugs dissolved in bath solution were applied using a fast perfusion system (VC^3-8XP, ALA Scientific Instrument, NY, USA): kainate (3, 10, 100 µM), AMPA (10, 30, 100 µM), NMDA (10, 100 µM), and perampanel (0.01–30 µM). All were from Sigma-Aldrich except perampanel, which was from Eisai Inc. Solution reservoirs contained the drugs separately or the combination of an agonist (kainate, AMPA or NMDA) plus perampanel. Each solution reservoir was connected to a pinch valve of the 8-channel VC^3-8XP perfusion system, which fed solution to an 8-to-1 mini-manifold (MP-8, Warner Instruments, Hamden, CT) that has a dead-volume of 3.5 µl when switching between solutions. Only one perfusion line was open at a time. The opening speed was 15–20 ms. The command for switching among perfusion lines was generated by the pClamp software and delivered to the control box of the perfusion system via a TTL connection.

AMPA receptor [3] = experiment: Whole-cell voltage-clamp recording of kainate-evoked (AMPA receptor) currents in cultured hippocampal neurons; assay type: cell-based, rat; conditions: for percent inhibition of kainate-evoked current: sample current
Protocol: as §1, §2, §3

NMDA receptor [4] = experiment: Whole-cell voltage-clamp recording of NMDA-evoked currents in cultured hippocampal neurons; assay type: cell-based, rat
Protocol: as §1, §2
Recordings were made with an Axopatch 200B patch-clamp amplifier (Axon Instruments, Foster City, CA, USA). Whole-cell currents were filtered at 2 kHz and digitized at 10 kHz. All neurons were voltage-clamped at −60 mV. […]

AMPA receptor [5] = molecular target: AMPA receptor; set-up: method as in PMID 21635236; conditions: cultured rat cortical neurons; read-out: IC50, inhibition of AMPA-induced Ca2+ influx; cited from earlier work
AMPA receptor [6] = conditions: CA1 area, rat hippocampal slices; read-out: IC50, inhibition of AMPA receptor component of the field response; cited from earlier work
NMDA receptor [7] = conditions: CA1 area, rat hippocampal slices; cited from earlier work
kainate receptor = conditions: CA1 area, rat hippocampal slices; cited from earlier work
NMDA receptor [8] = conditions: 30 µM; studies to date; cited from earlier work
[9] = 1 µM perampanel, 10, 30 and 100 µM AMPA
[10] = 3 µM perampanel and 100 µM AMPA applied simultaneously
[11] = 30 µM perampanel preapplied 5 s then coapplied, 10 and 100 µM NMDA

CC1=NN=C(c2ccc(N)cc2)c2cc3c(cc2C1)OCO3 [GYKI 52466, 1-(4-amino-phenyl)-4-methyl-7,8-methyl-endioxyl-5H-2,3-benzodiaze pine]
displacement of [3H]perampanel binding (AMPA receptors): displaced
inhibition of steady AMPA receptor current (AMPA receptor [1]; 30 µM): ~50%
time in which block occurs (AMPA receptor [1]; 30 µM): several hundred milliseconds
association rate (AMPA receptor [1]): 160000 M⁻¹ s⁻¹
dissociation rate (AMPA receptor [1]): 3.2 s⁻¹

CCN(CC)Cc1cccc(/C=C/c2nc3ccc(F)cc3c(=O)n2-c2ccccc2Cl)n1 [CP-465,022]
displacement of [3H]perampanel binding (AMPA receptors): displaced

N#Cc1ccccc1-c1cc(-c2ccccn2)cn(-c2ccccc2)c1=O [Perampanel, 2-(2-oxo-1-phenyl-5-pyridin-2-yl-1,2-dihydropyridin-3-yl)benzonitrile]
effect on decay time constant of AMPA-evoked currents (AMPA receptor [2]; [9]): did not alter
effect on peak to late ratio of AMPA-evoked currents (AMPA receptor [2]; [9]): not statistically different from control
effect on rise time constant of AMPA-evoked currents (AMPA receptor [2]; [9]): did not alter
reduction of peak AMPA response (AMPA receptor [2]; [10]): 17%
time to full block (AMPA receptor [2]; [10]): ≤ 5 s
reduction in the peak and late AMPA responses (AMPA receptor [2]; 3 µM perampanel started 5 s before 100 µM AMPA): ~60%
time constant (τ) of inhibition of AMPA receptor currents (AMPA receptor [2]; 3 µM perampanel, currents evoked by AMPA and kainate): ~1 s
time over which block develops without preexposure (AMPA receptor [2]; 3 µM perampanel, kainate- and AMPA-evoked currents (Fig. 3)): ~3 s
IC50 (AMPA receptor [2]; 10 µM AMPA, holding −60 mV, perampanel preapplied 5 s then coapplied, read-out: AMPA Response IC50, Peak Current): 400 nM
IC50 (AMPA receptor [2]; 10 µM AMPA, late current at end of 5 s AMPA perfusion, read-out: AMPA Response IC50, Late Current): 400 nM
IC50 (AMPA receptor [2]; 30 µM AMPA, holding −60 mV, perampanel preapplied 5 s then coapplied, read-out: AMPA Response IC50, Peak Current): 800 nM
IC50 (AMPA receptor [2]; 30 µM AMPA, late current at end of 5 s AMPA perfusion, read-out: AMPA Response IC50, Late Current): 900 nM
Kd (AMPA receptor [2]; 100 µM AMPA-evoked currents, read-out: kinetically determined binding affinity (KD = k–1/k1)): 3900 nM
mean off rate determined from the τoff values (AMPA receptor [2]; 100 µM AMPA, 1, 3 and 10 µM perampanel): 0.68 s⁻¹
unbinding rate constant k–1 (rate of unblock, dissociation rate) (AMPA receptor [2]; 100 µM AMPA, 1, 3 and 10 µM perampanel, intercept of kapp vs concentration): 0.58 s⁻¹
binding rate constant k1 (rate of block, association rate) (AMPA receptor [2]; 100 µM AMPA, 1, 3 and 10 µM perampanel, slope of kapp vs concentration): 1.5×10^5 M^−1 s^−1 and 1.51±0.10×10^5 M^−1 s^−1
IC50 (AMPA receptor [2]; 100 µM AMPA, holding −60 mV, perampanel preapplied 5 s then coapplied, read-out: AMPA Response IC50, Peak Current): 900 nM
IC50 (AMPA receptor [2]; 100 µM AMPA, late current at end of 5 s AMPA perfusion, read-out: AMPA Response IC50, Late Current): 1200 nM
percent inhibition of kainate-evoked current (AMPA receptor [3]; 0.1 µM perampanel, 100 µM kainate): 20%
percent inhibition of kainate-evoked current (AMPA receptor [3]; 0.3 µM perampanel, 100 µM kainate): 41%
percent inhibition of kainate-evoked current (AMPA receptor [3]; 1 µM perampanel, 100 µM kainate): 55%
IC50 (AMPA receptor [3]; 3 µM kainate, holding −60 mV, perampanel preapplied 5 s then coapplied, read-out: Kainate Response IC50): 580 nM
time constant (τ) of development of block (AMPA receptor [3]; 3 µM perampanel started 5 s after onset of 100 µM kainate): 1.2 ± 0.1 s
reduction of the kainate-induced current (AMPA receptor [3]; 3 µM perampanel started 5 s before kainate (100 µM), one neuron): ~73%
time constant (τ) of recovery from block (AMPA receptor [3]; 3 µM perampanel, 100 µM kainate, after termination of perampanel): 3.3 ± 1.5 s
percent inhibition of kainate-evoked current (AMPA receptor [3]; 3 µM perampanel, 100 µM kainate): 80%
IC50 (AMPA receptor [3]; 10 µM kainate, holding −60 mV, perampanel preapplied 5 s then coapplied, read-out: Kainate Response IC50): 510 nM
IC50 (AMPA receptor [3]; 100 µM kainate, holding −60 mV, perampanel preapplied 5 s then coapplied, read-out: Kainate Response IC50): 580 nM
IC50 (AMPA receptor [3]; overall value, similar at all kainate concentrations (3–100 µM), read-out: IC50, block of non-desensitizing kainate-evoked currents): 560 nM
effect on mean amplitude of late NMDA-evoked current (NMDA receptor [4]; [11]): failed to affect
effect on mean amplitude of peak NMDA-evoked current (NMDA receptor [4]; [11]): failed to affect
effect on NMDA receptor currents (NMDA receptor [4]; summary statement): did not affect
IC50 (AMPA receptor [5]): 93 nM
IC50 (AMPA receptor [6]): 230 nM
effect on NMDA receptor component of the field response (NMDA receptor [7]): without affecting
effect on kainate receptor component of the field response (kainate receptor): without affecting
inhibition of NMDA responses (NMDA receptor [8]): only minimally inhibits
